Reference: US10774071B2, “PD-1/PD-L1 inhibitors” (Gilead Sciences, Inc., priority 2018, dated 2020)

Experiments:
PD-1/PD-L1 = PD-1/PD-L1 (Homo sapiens (Human), UniProt Q9NZQ7); test: PD-1/PD-L1 biochemical protein-protein interaction assay (ALPHA); assay type: binding; details: 0.3 nM His tagged PD-L1, 2.5 nM biotinylated Fc-PD-1, readings of 0.064 nM are equal to or less than 0.064 nM, read-out: IC50 PD-L1-PD1
Protocol: Compounds were tested in biochemical protein-protein interaction assays to determine if they can specifically block the interaction between the extracellular domains of PD-1/PD-L1 or CTLA/CD80. Binding of the protein pairs is measured using a bead based Amplified Luminescent Proximity Homogeneous Assay (ALPHA) platform. […] Final protein concentration in the assays were 0.3 nM (His tagged PD-L1), 2.5 nM (biotinylated Fc-PD-1), 1 nM (His tagged CTLA4) and 1 nM (biotinylated CD80).

PD-L1 = PD-L1 (Homo sapiens (Human), UniProt Q9NZQ7); test: PD-L1/PD-L1 dimerization biochemical protein-protein interaction assay (ALPHA); assay type: binding; details: 0.5 nM His tagged PD-L1 and 0.5 nM FLAG tagged PD-L1, Table 4A, read-out: AC50 PDL1 Dimer 1 nM
PD-L1, sequence (Q9NZQ7 19-238): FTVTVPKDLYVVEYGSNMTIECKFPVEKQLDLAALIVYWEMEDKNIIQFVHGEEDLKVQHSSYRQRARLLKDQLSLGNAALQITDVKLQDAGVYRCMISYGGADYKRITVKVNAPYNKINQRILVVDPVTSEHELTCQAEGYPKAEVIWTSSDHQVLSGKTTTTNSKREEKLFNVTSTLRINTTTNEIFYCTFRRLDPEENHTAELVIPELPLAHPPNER
PD-L1, sequence (Q9NZQ7 19-238): as above

PD-1/PD-L1, sequence (Q9NZQ7 19-238): as above

Structure (SMILES): COc1cc(N[C@H]2CCc3c(-c4cccc(-c5ccc(CNC[C@@H]6CCC(=O)N6)c(OC)n5)c4Cl)cccc32)c(Cl)cc1CN1CC[C@@](C)(C(=O)O)C1 [A-14, (R)-1-(5-chloro-4-(((S)-4-(2-chloro-3-(6-methoxy-5-(((((S)-5-oxopyrrolidin-2-yl)methyl)amino)methyl)pyridin-2-yl)phenyl)-2,3-dihydro-1H-inden-1-yl)amino)-2-methoxybenzyl)-3-methylpyrrolidine-3-carboxylic acid]
- IC50 (PD-1/PD-L1): ≤ 0.064 nM
- AC50 (PD-L1): 30.4 nM

Structure (SMILES): COc1cc(N[C@H]2CCc3c(-c4cccc(-c5ccc(CNC[C@@H]6CCC(=O)N6)c(OC)n5)c4Cl)cccc32)c(Cl)cc1CN1CC[C@H](C(=O)O)C1 [A-15]
- IC50 (PD-1/PD-L1): ≤ 0.064 nM
- AC50 (PD-L1): 51.6 nM

Structure (SMILES): COc1cc(N[C@H]2CCc3c(-c4cccc(-c5ccc(CNC[C@@H]6CCC(=O)N6)c(OC)n5)c4Cl)cccc32)c(Cl)cc1CN1CC[C@@H](C(=O)O)C1 [A-16]
- IC50 (PD-1/PD-L1): ≤ 0.064 nM
- AC50 (PD-L1): 42.1 nM

Structure (SMILES): COc1nc(-c2cccc(-c3cccc4c3CC[C@@H]4Nc3nc(OC)c(CN)nc3C(F)(F)F)c2Cl)ccc1CNC[C@@H]1CCC(=O)N1 [A-17]
- IC50 (PD-1/PD-L1): 0.077 nM
- AC50 (PD-L1): 13.9 nM

Structure (SMILES): COc1nc(-c2cccc(-c3cccc4c3CC[C@@H]4Nc3nc(OC)c(CN4CC[C@@H](C(=O)O)C4)nc3C(F)(F)F)c2Cl)ccc1CNC[C@@H]1CCC(=O)N1 [A-19]
- IC50 (PD-1/PD-L1): ≤ 0.064 nM
- AC50 (PD-L1): 26.1 nM

Structure (SMILES): COc1nc(-c2cccc(-c3cccc4c3CC[C@@H]4Nc3nc(OC)c(CN4CC[C@@](C)(C(=O)O)C4)nc3C(F)(F)F)c2Cl)ccc1CNC[C@@H]1CCC(=O)N1 [A-20]
- IC50 (PD-1/PD-L1): ≤ 0.064 nM
- AC50 (PD-L1): 29.1 nM

Structure (SMILES): COc1nc(-c2cccc(-c3cccc4c3CC[C@@H]4Nc3nc(OC)c(CNC4(C(=O)O)CCC4)cc3C(F)(F)F)c2Cl)ccc1CNCC1CCC(=O)N1 (stereo partly shown) [A-22]
- IC50 (PD-1/PD-L1): ≤ 0.064 nM
- AC50 (PD-L1): 8.17 nM

Structure (SMILES): COc1nc(-c2cccc(-c3cccc4c3CC[C@@H]4Nc3nc(OC)c(CN4CC[C@@H](C(=O)O)C4)cc3C(F)(F)F)c2Cl)ccc1CN1CC2(CCC(=O)N2)C1 [A-24]
- IC50 (PD-1/PD-L1): ≤ 0.064 nM
- AC50 (PD-L1): 38.8 nM

Structure (SMILES): COc1nc(-c2cccc(-c3cccc4c3CC[C@@H]4Nc3nc(OC)c(CN4CC[C@@H](C(=O)O)C4)cc3C(F)(F)F)c2Cl)ccc1CN1CC(C)(O)C1 [A-25]
- IC50 (PD-1/PD-L1): ≤ 0.064 nM
- AC50 (PD-L1): 28.1 nM

Structure (SMILES): COc1nc(N[C@H]2CCc3c(-c4cccc(-c5ccc(CNC[C@@H]6CCC(=O)N6)c(OCC#N)n5)c4Cl)cccc32)c(C(F)(F)F)nc1CN1CC[C@@](C)(C(=O)O)C1 [A-26]
- IC50 (PD-1/PD-L1): ≤ 0.064 nM
- AC50 (PD-L1): 13.4 nM

Structure (SMILES): COc1nc(N[C@H]2CCc3c(-c4cccc(-c5ccc(CNC[C@@H]6CCC(=O)N6)c(OCC#N)n5)c4Cl)cccc32)c(C(F)(F)F)cc1CN1CCC[C@@]1(C)C(=O)O [A-27]
- IC50 (PD-1/PD-L1): ≤ 0.064 nM
- AC50 (PD-L1): 7.77 nM

Structure (SMILES): COc1nc(N[C@H]2CCc3c(-c4cccc(-c5ccc(CNC[C@@H]6CCC(=O)N6)c(OCC#N)n5)c4Cl)cccc32)c(C(F)(F)F)cc1CN1CCC[C@]1(C)C(=O)O [A-28]
- IC50 (PD-1/PD-L1): ≤ 0.064 nM
- AC50 (PD-L1): 18.1 nM

Structure (SMILES): COc1nc(N[C@H]2CCc3c(-c4cccc(-c5ccc(CNC[C@@H]6CCC(=O)N6)c(OCC#N)n5)c4Cl)cccc32)c(C(F)(F)F)cc1CNC1(C(=O)O)CC1 [A-29]
- IC50 (PD-1/PD-L1): ≤ 0.064 nM
- AC50 (PD-L1): 5.57 nM

Structure (SMILES): COc1cc(-c2cccc(-c3cccc4c3CC[C@@H]4Nc3nc(OC)c(CN(C)CC(=O)O)nc3C(F)(F)F)c2Cl)cc(F)c1CNC[C@@H]1CCC(=O)N1 [A-30]
- IC50 (PD-1/PD-L1): ≤ 0.064 nM
- AC50 (PD-L1): 9.89 nM

Structure (SMILES): COc1cc(-c2cccc(-c3cccc4c3CC[C@@H]4Nc3nc(OC)c(CN4CC[C@@H](C(=O)O)C4)nc3C(F)(F)F)c2Cl)cc(F)c1CNC[C@@H]1CCC(=O)N1 [A-31]
- IC50 (PD-1/PD-L1): ≤ 0.064 nM
- AC50 (PD-L1): 6.84 nM

Structure (SMILES): COc1cc(-c2cccc(-c3cccc4c3CC[C@@H]4Nc3nc(OC)c(CNC4(C(=O)O)CC4)nc3C(F)(F)F)c2Cl)cc(F)c1CNC[C@@H]1CCC(=O)N1 [A-32]
- IC50 (PD-1/PD-L1): ≤ 0.064 nM
- AC50 (PD-L1): 12.5 nM

Structure (SMILES): COc1cc(-c2cccc(-c3cccc4c3CC[C@@H]4Nc3nc(OC)c(CN4CC5(C(=O)O)CCC4CC5)nc3C(F)(F)F)c2Cl)cc(F)c1CNC[C@@H]1CCC(=O)N1 [A-33]
- IC50 (PD-1/PD-L1): ≤ 0.064 nM
- AC50 (PD-L1): 11.7 nM

Structure (SMILES): COc1nc(-c2cccc(-c3cccc4c3CC[C@@H]4Nc3nc(OC)c(CN(C)CC(=O)O)nc3C(F)(F)F)c2Cl)ccc1CNC[C@@H]1CCC(=O)N1 [A-34]
- IC50 (PD-1/PD-L1): ≤ 0.064 nM
- AC50 (PD-L1): 8.26 nM

Structure (SMILES): COc1nc(-c2cccc(-c3cccc4c3CC[C@@H]4Nc3nc(OC)c(CN(C)CC(=O)O)cc3C(F)(F)F)c2Cl)ccc1CNC[C@@H]1CCC(=O)N1 [A-35]
- IC50 (PD-1/PD-L1): ≤ 0.064 nM
- AC50 (PD-L1): 13.2 nM

Structure (SMILES): COc1cc(-c2cccc(-c3cccc4c3CC[C@@H]4Nc3nc(OC)c(CN4CC[C@@H](C(=O)O)C4)cc3C(F)(F)F)c2Cl)ccc1CNC[C@@H]1CCC(=O)N1 [A-36]
- IC50 (PD-1/PD-L1): ≤ 0.064 nM
- AC50 (PD-L1): 2.05 nM

Structure (SMILES): COc1cc(N[C@H]2CCc3c(-c4cccc(-c5ccc(CNC[C@@H]6CCC(=O)N6)c(OC)n5)c4Cl)cccc32)c(C(F)(F)F)nc1CNC1(C(=O)O)CC1 [A-37]
- IC50 (PD-1/PD-L1): ≤ 0.064 nM
- AC50 (PD-L1): 6.26 nM

Structure (SMILES): COc1nc(-c2cccc(-c3cccc4c3CC[C@@H]4Nc3nc(OC)c(CN4CCC[C@]4(C)C(=O)O)cc3C(F)(F)F)c2Cl)ccc1CNC[C@@H]1CCC(=O)N1 [A-38]
- IC50 (PD-1/PD-L1): ≤ 0.064 nM
- AC50 (PD-L1): 16.9 nM

Structure (SMILES): COc1nc(-c2cccc(-c3cccc4c3CC[C@@H]4Nc3nc(OC)c(CN4CCC[C@@]4(C)C(=O)O)cc3C(F)(F)F)c2Cl)ccc1CNC[C@@H]1CCC(=O)N1 [A-39]
- IC50 (PD-1/PD-L1): ≤ 0.064 nM
- AC50 (PD-L1): 17.8 nM

Structure (SMILES): COc1nc(-c2cccc(-c3cccc4c3CC[C@@H]4Nc3nc(OC)c(CNC(C)(C)C(=O)O)cc3C(F)(F)F)c2Cl)ccc1CNC[C@@H]1CCC(=O)N1 [A-40]
- IC50 (PD-1/PD-L1): ≤ 0.064 nM
- AC50 (PD-L1): 6.81 nM

Structure (SMILES): COc1cc(N[C@H]2CCc3c(-c4cccc(-c5ccc(CNC[C@@H]6CCC(=O)N6)c(OC)n5)c4Cl)cccc32)c(C(F)(F)F)nc1CN1CC[C@@](C)(C(=O)O)C1 [A-42]
- IC50 (PD-1/PD-L1): ≤ 0.064 nM
- AC50 (PD-L1): 12.6 nM

Structure (SMILES): COc1cc(N[C@H]2CCc3c(-c4cccc(-c5ccc(CNC[C@@H]6CCC(=O)N6)c(OC)n5)c4Cl)cccc32)c(C(F)(F)F)nc1CN1CC[C@@H](C(=O)O)C1 [A-43]
- IC50 (PD-1/PD-L1): ≤ 0.064 nM
- AC50 (PD-L1): 9.89 nM

Structure (SMILES): COc1cc(N[C@H]2CCc3c(-c4cccc(-c5ccc(CNC[C@@H]6CCC(=O)N6)c(OC)n5)c4Cl)cccc32)c(C(F)(F)F)nc1CN [A-44]
- IC50 (PD-1/PD-L1): ≤ 0.064 nM
- AC50 (PD-L1): 10.6 nM

Structure (SMILES): COc1nc(-c2cccc(-c3cccc4c3CC[C@@H]4Nc3nc(OC)c(CN[C@@H](C)C(=O)O)nc3C(F)(F)F)c2Cl)ccc1CNC[C@@H]1CC(O)C(=O)N1 (stereo partly shown) [A-45]
- IC50 (PD-1/PD-L1): ≤ 0.064 nM
- AC50 (PD-L1): 5.86 nM

Structure (SMILES): COc1nc(-c2cccc(-c3cccc4c3CC[C@@H]4Nc3nc(OC)c(CNCC(=O)O)nc3C(F)(F)F)c2Cl)ccc1CNC[C@@H]1CC(O)C(=O)N1 (stereo partly shown) [A-46]
- IC50 (PD-1/PD-L1): ≤ 0.064 nM
- AC50 (PD-L1): 7.18 nM

Structure (SMILES): COc1nc(-c2cccc(-c3cccc4c3CC[C@@H]4Nc3nc(OC)c(CN4CC5(C(=O)O)CCC4CC5)nc3C(F)(F)F)c2Cl)ccc1CNC[C@@H]1CC(O)C(=O)N1 (stereo partly shown) [A-47]
- IC50 (PD-1/PD-L1): ≤ 0.064 nM
- AC50 (PD-L1): 22.3 nM

Structure (SMILES): COc1nc(-c2cccc(-c3cccc4c3CC[C@@H]4Nc3nc(OC)c(CN[C@@H](C)C(=O)O)nc3C(F)(F)F)c2Cl)ccc1CNC[C@H]1C[C@H](O)C1 [A-48]
- IC50 (PD-1/PD-L1): ≤ 0.064 nM
- AC50 (PD-L1): 13.5 nM

Structure (SMILES): COc1nc(-c2cccc(-c3cccc4c3CC[C@@H]4Nc3nc(OC)c(CNCC(=O)O)nc3C(F)(F)F)c2Cl)ccc1CNC[C@H]1C[C@H](O)C1 [A-49]
- IC50 (PD-1/PD-L1): ≤ 0.064 nM
- AC50 (PD-L1): 10.7 nM

Structure (SMILES): COc1nc(-c2cccc(-c3cccc4c3CC[C@@H]4Nc3nc(OC)c(CN[C@@H](C)C(=O)O)nc3C(F)(F)F)c2Cl)ccc1CN[C@H]1C[C@](C)(O)C1 [A-50]
- IC50 (PD-1/PD-L1): ≤ 0.064 nM
- AC50 (PD-L1): 17.6 nM

Structure (SMILES): COc1nc(-c2cccc(-c3cccc4c3CC[C@@H]4Nc3nc(OC)c(CN4CCCC[C@]4(C)C(=O)O)cc3C(F)(F)F)c2Cl)ccc1CN1CC(C)(O)C1 [A-51]
- IC50 (PD-1/PD-L1): ≤ 0.064 nM
- AC50 (PD-L1): 106 nM

Structure (SMILES): COc1nc(-c2cccc(-c3cccc4c3CC[C@@H]4Nc3nc(OC)c(CN4CCCC[C@@]4(C)C(=O)O)cc3C(F)(F)F)c2Cl)ccc1CN1CC(C)(O)C1 [A-52]
- IC50 (PD-1/PD-L1): ≤ 0.064 nM
- AC50 (PD-L1): 15.3 nM

Structure (SMILES): COc1nc(-c2cccc(-c3cccc4c3CC[C@@H]4Nc3nc(OC)c(CN4CC(C)(C(=O)O)C4)cc3C(F)(F)F)c2Cl)ccc1CNC[C@@H]1CCC(=O)N1 [A-53]
- IC50 (PD-1/PD-L1): ≤ 0.064 nM
- AC50 (PD-L1): 16.2 nM

Structure (SMILES): COc1nc(-c2cccc(-c3cccc4c3CC[C@@H]4Nc3nc(OC)c(CN4CC(C(=O)O)C4)cc3C(F)(F)F)c2Cl)ccc1CN1CC(C)(O)C1 [A-54]
- IC50 (PD-1/PD-L1): ≤ 0.064 nM
- AC50 (PD-L1): 76.6 nM

Structure (SMILES): COc1nc(-c2cccc(-c3cccc4c3CC[C@@H]4Nc3nc(OC)c(CN4CC(C(=O)O)C4)cc3C(F)(F)F)c2Cl)ccc1CNC[C@@H]1CCC(=O)N1 [A-55]
- IC50 (PD-1/PD-L1): ≤ 0.064 nM
- AC50 (PD-L1): 13.2 nM
